Earlier results, collected in PMC12308805, “Ultrahigh-Throughput Virtual Screening Strategies against PPI Targets: A Case Study of STAT Inhibitors” (Journal of Chemical Information and Modeling, 2025).
Square brackets hold non-standard residues; d marks the D form. Peptide text beside a SMILES is read from it. * marks the point of attachment. pY = N[C@@H](Cc1ccc(OP(=O)(O)O)cc1)C(=O)O; NH(1S-phenylethyl) = C[C@H](N*)c1ccccc1; d(aThr) = C[C@@H](O)[C@@H](N)C(=O)O; βNA = c1ccc2cc(N*)ccc2c1; Bz = O=C(c1ccccc1)*

Test system: STAT3
Conditions: sheet 6QHD_actives_decoys, retrospective screening set for STAT3 SH2 domain (PDB 6QHD); decoys are presumed inactives, not tested; ref DUD-E; cited from earlier work
For `CCCCCCCCCCCCCCCCN(C)S(=O)(=O)c1ccc2sc(NNS(=O)(=O)c3ccc(S(N)(=O)=O)cc3)[n+](C)c2c1` [Decoy748], the Type is listed as “Inactive (Decoy)”. For `CO[C@@H]1[C@H](O)[C@H](OC[C@H]2O[C@@H](O[C@@H]3CC[C@]4(C)[C@H](CC[C@@H]5[C@@H]4CC[C@@]4(C)[C@@H](C6=CC(=O)OC6)CC[C@]54O)C3)[C@@H](O)[C@@H](O)[C@H]2O)O[C@@H](C)[C@@H]1O` [Decoy926], the Type is listed as “Inactive (Decoy)”. For `CO[C@H]1C[C@H](O[C@H]2CC[C@]3(C=O)[C@H]4CC[C@]5(C)[C@@H](C6=CC(=O)OC6)CC[C@]5(O)[C@@H]4CC[C@]3(O)C2)O[C@H](C)[C@H]1O[C@H]1O[C@H](CO)[C@@H](O)[C@H](O)[C@H]1O` [Decoy943], the Type is given as “Inactive (Decoy)”. In the case of `CC(O)(O)C(=O)OCC(C)(COC(=O)C(C)(O)O)C(=O)OCC(C)(COC(=O)C(C)(COC(=O)C(C)(O)O)COC(=O)C(C)(O)O)C(=O)OCCS` [Decoy812], the Type is given as “Inactive (Decoy)”. For `COc1cc(NC(=S)Nc2ccc(S(=O)(=O)/N=c3/cc(OC)nc(OC)[nH]3)cc2)cc(OC)c1` [Decoy884], the Type is given as “Inactive (Decoy)”. In the case of `CCN(CC)Cc1nnn(-c2nonc2N)c1C(=O)N/N=C(\C)c1ccc(OCc2ccc(Cl)cc2Cl)cc1` [Decoy952], the Type is listed as “Inactive (Decoy)”. For `COc1cc(Cc2cc(OC)c(OC)cc2NS(=O)(=O)c2ccc3c(c2)NC(=O)CO3)c(NS(=O)(=O)c2ccc3c(c2)NC(=O)CO3)cc1OC` [Decoy940], the Type is given as “Inactive (Decoy)”. For `Cn1c(CCCC(=O)O)nc2cc(N(CCO)CCOC(=O)CCCc3nc4cc(N(CCO)CCO)ccc4n3C)ccc21` [Decoy826], the Type is given as “Inactive (Decoy)”. For `CCN(CC)c1ccc(NC(=S)NC(=O)c2ccco2)cc1S(=O)(=O)Nc1ccc(OC)cc1` [Decoy769], the Type is given as “Inactive (Decoy)”. In the case of `COc1c([C@@H]2OC[C@@H](OC(C)=O)[C@@H](OC(C)=O)[C@H]2OC(C)=O)c(O)cc2oc(-c3ccc(O[C@H]4O[C@@H](CO)[C@@H](O)[C@@H](O)[C@H]4O)cc3)cc(=O)c12` [Decoy773], the Type is listed as “Inactive (Decoy)”. For `O[C@@H](CNCCOc1ccccc1OCCNC[C@H](O)COc1cccc2[nH]c3ccccc3c12)COc1cccc2[nH]c3ccccc3c12` [Decoy878], the Type is given as “Inactive (Decoy)”. For `CCCCN/N=C(C(=O)OC)/C(C(=O)OC)=C(\O)C(=O)Nc1nc2ccc([N+](=O)[O-])cc2s1` [Decoy925], the Type is listed as “Inactive (Decoy)”. For `CC(=O)[C@@H]1CC[C@H]2[C@H]3CC=C4C[C@@H](O[C@@H]5O[C@H](CO)[C@@H](O)[C@H](O)[C@H]5O[C@@H]5O[C@H](CO)[C@@H](O)[C@H](O)[C@H]5O)CC[C@]4(C)[C@@H]3CC[C@]12C` [Decoy895], the Type is listed as “Inactive (Decoy)”.

Same assay, conditions: sheet 6QHD_actives_decoys; known STAT3 actives of the retrospective screening set; ref ChEMBL / literature; cited from earlier work
For `CC(=O)N[C@@H](Cc1ccc(OP(=O)(O)O)cc1)C(=O)N[C@@H](CC(C)C)C(=O)N1CCC[C@@H]1C(=O)N[C@H](CCC(N)=O)C(=O)N[C@@H](C(=O)N[C@H](C)C(=O)O)[C@@H](C)O` [CHEMBL157727] (Ac-[pY]L[dP][dQ][d(aThr)][dA]-OH), the “Type (known STAT3 active)” value is given as “Active”. In the case of `CC(C)C[C@H](NC(=O)/C=C/c1ccc(OP(=O)(O)O)cc1)C(=O)N1CCC[C@H]1C(=O)N[C@@H](CCC(N)=O)C(=O)NCc1ccccc1` [CHEMBL267246], the “Type (known STAT3 active)” value is given as “Active”. In the case of `CC(=O)N[C@@H](Cc1ccc(OP(=O)(O)O)cc1)C(=O)N[C@@H](CC(C)C)C(=O)N1CCC[C@H]1C(=O)N[C@@H](CCC(N)=O)C(=O)N[C@@H](C)c1ccccc1` [CHEMBL370208] (Ac-[pY]LPQ-{NH(1S-phenylethyl)}), the “Type (known STAT3 active)” value is given as “Active”. For `CC(C)C[C@H](NC(=O)[C@H](Cc1ccc(OP(=O)(O)O)cc1)NC(=O)c1ccccc1)C(=O)N1CCC[C@H]1C(=O)N[C@@H](CCC(N)=O)C(=O)N[C@H](C(N)=O)[C@@H](C)O` [CHEMBL425571] (Bz-[pY]LPQT-NH2), the “Type (known STAT3 active)” value is given as “Active”.

Same assay, conditions: sheet 6QHD_actives_decoys; retrospective screening set for STAT3 SH2 domain (PDB 6QHD); […]; ref DUD-E; cited from earlier work
In the case of `O=c1c(C[C@@H](O)CN2CCOCC2)c(O)n(C[C@H](O)CN2CCOCC2)c(=O)n1C[C@H](O)CN1CCOCC1` [Decoy567], the Type is listed as “Inactive (Decoy)”. In the case of `CCOC(=O)C1=C(SC)S[C@@H](/C(C(=O)OCC)=C2/NN=C(c3ccccc3)O2)N=C1N` [Decoy644], the Type is listed as “Inactive (Decoy)”. For `Cc1nccc(NS(=O)(=O)c2ccc(NC(=O)c3cccc(C(=O)Nc4ccc(S(=O)(=O)Nc5ccnc(C)n5)cc4)c3)cc2)n1` [Decoy361], the Type is given as “Inactive (Decoy)”. In the case of `NCCCC[C@H](NC(=O)[C@@H](CC(=O)O)NC(=O)[C@@H](CC(=O)O)NC(=O)[C@@H](CC(=O)O)NC(=O)[C@@H](CC(=O)O)NC(=O)CN)C(=O)Nc1ccc2ccccc2c1` [Decoy438] (H-G[dD][dD][dD][dD]K-βNA), the Type is given as “Inactive (Decoy)”.

Same assay, conditions: sheet 6QHD_actives_decoys; retrospective screening set for STAT3 SH2 domain (PDB 6QHD); decoys generated with DUD-E and presumed inactive, not tested; ref DUD-E; cited from earlier work
For `CCCn1c(O)nnc1SCC1=C(C(=O)OCC)[C@H](c2ccc(Cl)cc2)NC(=O)N1` [Decoy576], the Type is given as “Inactive (Decoy)”. For `C=CCOC(=O)c1sc(NC(=O)[C@@H](C)n2c(N)nnc2SCc2ccccc2Cl)nc1C` [Decoy562], the Type is listed as “Inactive (Decoy)”. In the case of `CCOC(=O)C1=C(C)NC(=O)N[C@H]1c1cc(OC)c(OCC(=O)Nc2ccc(C)cc2)cc1Br` [Decoy705], the Type is given as “Inactive (Decoy)”. For `COC(=O)c1sc(S(=O)(=O)NCC(=O)OCC(=O)Nc2cccc(C#N)c2)c(C(=O)OC)c1C` [Decoy364], the Type is given as “Inactive (Decoy)”. In the case of `C=C1CC[C@@H]2[C@](C)(CC[C@H](O)[C@@]2(C)CO[C@H]2O[C@@H](CO[C@H]3O[C@@H](CO)[C@@H](O)[C@H]3O)[C@@H](O)[C@@H](O)[C@H]2O)[C@@H]1CC/C(C)=C\CO` [Decoy611], the Type is given as “Inactive (Decoy)”. For `COC(=O)c1cc(NC(=S)/N=C(/NCCN2CCOCC2)Nc2nc(C)cc(C)n2)cc(C(=O)OC)c1` [Decoy366], the Type is listed as “Inactive (Decoy)”. For `CCOc1cc(/C=N/NC(=O)c2nnn(-c3nonc3N)c2CSC2=NCCS2)cc(Br)c1OCc1cccc(C)c1` [Decoy594], the Type is given as “Inactive (Decoy)”. For `O=C(CSc1cn[nH]n1)Nc1ccc(-c2nc3ccc(NC(=O)CSc4cn[nH]n4)cc3s2)c(O)c1` [Decoy624], the Type is listed as “Inactive (Decoy)”. In the case of `O=C(Nc1ccc2c(O)c(/N=N/c3ccccc3)c(S(=O)(=O)O)cc2c1)Nc1ccc2c(O)c(/N=N/c3ccccc3)c(S(=O)(=O)O)cc2c1` [Decoy486], the Type is given as “Inactive (Decoy)”. In the case of `C=CCn1c(SCC(=O)Nc2sc(C(N)=O)c(C)c2C(=O)OC)nnc1-c1ccc(N(C)C)cc1` [Decoy380], the Type is given as “Inactive (Decoy)”. For `Cc1n[nH]c2nc(SCC(=O)NCCc3ccc(S(N)(=O)=O)cc3)[n+](-c3ccc(Br)cc3)c(N)c12` [Decoy390], the Type is listed as “Inactive (Decoy)”. In the case of `Cc1ccc(S(=O)(=O)n2cc(/C=N\N=C3/NC(=O)[C@H](CC(=O)O)S3)c3ccccc32)cc1` [Decoy683], the Type is given as “Inactive (Decoy)”. In the case of `O=c1c(-c2ccc(O[C@@H]3O[C@H](CO)[C@@H](O)[C@H](O)[C@H]3O)cc2)coc2c(CN3CCCC3)c(O)c(CN3CCCC3)c(O)c12` [Decoy428], the Type is listed as “Inactive (Decoy)”. In the case of `C=C(CCO)C(=O)OC[C@H]1OC[C@@H](OC(=O)C(=C)CCO[C@@H]2O[C@H](COC(=O)C(=C)CCO)[C@@H](O)[C@H](O)[C@H]2O)[C@@H](O)[C@H]1O` [Decoy492], the Type is listed as “Inactive (Decoy)”. For `O=C(CN(c1cccc([N+](=O)[O-])c1)S(=O)(=O)c1ccccc1)Nc1ccccc1C(=O)NCc1ccco1` [Decoy365], the Type is listed as “Inactive (Decoy)”. For `CCOC(=O)c1ccc(NC(=O)C/C(C)=N/NC(=O)C(=O)Nc2cccc(Cl)c2C)cc1` [Decoy358], the Type is listed as “Inactive (Decoy)”. In the case of `COc1ccc(CCNc2ccc3nnc(CCNS(=O)(=O)c4ccc(C)cc4)n3n2)cc1OC` [Decoy586], the Type is given as “Inactive (Decoy)”.
